Reference: PubChem BioAssay (NCI)
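Test compounds were applied to cells in 96-well plates for 48 hours at 5 doses. TGI denotes the concentration required for complete inhibition of growth.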

Key:
Experiment in all cases: growth of human tumour cells (NCI), 48 h
[1] = system: A549 NSCLC
[2] = system: ACHN renal
[3] = system: RXF 393 renal
[4] = system: UACC-257 melanoma
[5] = system: TK-10 renal
[6] = system: MOLT-4 leukemia
[7] = system: 786-0 renal
[8] = system: MDA-N
[9] = system: HS 578T breast
[10] = system: LOX IMVI melanoma
[11] = system: SN12C renal
[12] = system: MALME-3M melanoma
[13] = system: OVCAR-3 ovarian
[14] = system: EKVX NSCLC
[15] = system: T-47D breast
[16] = system: RPMI-8226 leukemia
[17] = system: CCRF-CEM leukemia
[18] = system: U251 CNS
[19] = system: DU-145 prostate
[20] = system: PC-3 prostate
[21] = system: NCI/ADR-RES ovarian
[22] = system: NCI-H460 lung
[23] = system: UACC-62 melanoma
[24] = system: A498 renal
[25] = system: NCI-H23 lung
[26] = system: MDA-MB-231 breast
[27] = system: HOP-92 NSCLC
[28] = system: HL-60(TB) leukemia
[29] = system: SK-MEL-5 melanoma
[30] = system: SF-539 CNS
[31] = system: CAKI-1 renal
[32] = system: COLO 205 colon
[33] = system: SW-620 colon
[34] = system: SNB-19 CNS
[35] = system: MDA-MB-435
[36] = system: SK-MEL-28 melanoma
[37] = system: SK-OV-3 ovarian
[38] = system: HOP-62 NSCLC
[39] = system: OVCAR-4 ovarian
[40] = system: HT29 colon
[41] = system: SF-295 CNS
[42] = system: MCF7 breast
[43] = system: SF-268 CNS
[44] = system: HCT-15 colon
[45] = system: SNB-75 CNS
[46] = system: OVCAR-5 ovarian
[47] = system: OVCAR-8 ovarian
[48] = system: IGROV1 ovarian
[49] = system: HCT-116 colon
[50] = system: K-562 leukemia
[51] = system: M14 melanoma
[52] = system: HCC-2998 colon
[53] = system: UO-31 renal
[54] = system: KM12 colon
[55] = system: NCI-H226 lung
[56] = system: BT-549 breast
[57] = system: SR leukemia

CCCCCCCCCCCCc1ccc(S(=O)(=O)O)cc1.[Cu+2]
TGI [1]: > 100 µM
TGI [2]: > 100 µM
TGI [3]: > 100 µM
TGI [4]: > 100 µM
TGI [5]: > 100 µM
TGI [6]: > 100 µM
TGI [7]: > 100 µM
TGI [8]: > 100 µM
TGI [9]: > 100 µM
TGI [10]: > 100 µM
TGI [11]: > 100 µM
TGI [12]: > 100 µM
TGI [13]: > 100 µM
TGI [14]: > 100 µM
TGI [15]: > 100 µM
TGI [16]: > 100 µM
TGI [17]: > 100 µM
TGI [18]: > 100 µM
TGI [19]: > 100 µM
TGI [20]: > 100 µM
TGI [21]: > 100 µM
TGI [22]: > 100 µM
TGI [23]: > 100 µM
TGI [24]: > 100 µM
TGI [25]: > 100 µM
TGI [26]: > 100 µM
TGI [27]: > 100 µM
TGI [28]: > 100 µM
TGI [29]: > 100 µM
TGI [30]: > 100 µM
TGI [31]: > 100 µM
TGI [32]: > 100 µM
TGI [33]: > 100 µM
TGI [34]: > 100 µM
TGI [35]: > 100 µM
TGI [36]: > 100 µM
TGI [37]: 22.8 µM
TGI [38]: > 100 µM
TGI [39]: > 100 µM
TGI [40]: > 100 µM
TGI [41]: > 100 µM
TGI [42]: > 100 µM
TGI [43]: > 100 µM
TGI [44]: > 100 µM
TGI [45]: > 100 µM
TGI [46]: > 100 µM
TGI [47]: > 100 µM
TGI [48]: > 100 µM
TGI [49]: > 100 µM
TGI [50]: > 100 µM
TGI [51]: > 100 µM
TGI [52]: > 100 µM
TGI [53]: > 100 µM
TGI [54]: > 100 µM

CC1(C)/C(=N\O)C2(OS(=O)(=O)C(F)(F)F)CCC1C2 (configuration not stated)
TGI [2]: > 100 µM
TGI [4]: > 100 µM
TGI [5]: > 100 µM
TGI [6]: > 100 µM
TGI [8]: > 100 µM
TGI [11]: > 100 µM
TGI [14]: > 100 µM
TGI [16]: > 100 µM
TGI [55]: > 100 µM
TGI [17]: > 100 µM
TGI [18]: > 100 µM
TGI [21]: > 100 µM
TGI [22]: > 100 µM
TGI [23]: > 100 µM
TGI [24]: > 100 µM
TGI [25]: > 100 µM
TGI [26]: > 100 µM
TGI [27]: > 100 µM
TGI [28]: > 100 µM
TGI [31]: > 100 µM
TGI [34]: > 100 µM
TGI [35]: > 100 µM
TGI [36]: > 100 µM
TGI [39]: > 100 µM
TGI [56]: > 100 µM
TGI [43]: > 100 µM
TGI [44]: > 100 µM
TGI [45]: > 100 µM
TGI [47]: > 100 µM
TGI [52]: > 100 µM
TGI [53]: > 100 µM
TGI [57]: > 100 µM
TGI [54]: > 100 µM
